# Laboratory results reported in ChEMBL document CHEMBL3885881, “DrugMatrix”.
# Species: Rattus norvegicus
# Experiment: DrugMatrix - Regimen: Daily Repeat
# Type: toxicity, organism-based, Sprague-Dawley
# Parameters: regimen Daily Repeat, gender Male, age 6-8 weeks
# Conditions: in vivo, po, route oral GAVAGE, vehicle 100 % WATER
# [1] = 0 mg/kg, 72 h, tissue Blood, dose level Control, time 3 day
# [2] = 0 mg/kg, 72 h, tissue Plasma, dose level Control, time 3 day
# [3] = 0 mg/kg, 120 h, tissue Blood, dose level Control, time 5 day
# [4] = 0 mg/kg, 120 h, tissue Plasma, dose level Control, time 5 day
# [5] = 24 mg/kg, 72 h, tissue Blood, dose level Low, time 3 day
# [6] = 24 mg/kg, 72 h, tissue Plasma, dose level Low, time 3 day
# [7] = 24 mg/kg, 120 h, tissue Blood, dose level Low, time 5 day
# [8] = 24 mg/kg, 120 h, tissue Plasma, dose level Low, time 5 day
sequence,measurement,setting,value
COLISTIN,BASOPHIL,[1],0%
same,EOSINOPHIL,[1],0.5%
same,ERYTHROCYTE COUNT,[1],5.8 x10E6/uL
same,HEMATOCRIT,[1],35.07%
same,LEUKOCYTE COUNT,[1],13.7 x10E3/uL
same,MEAN CORPUSCULAR HEMOGLOBIN,[1],24.38 pg
same,MEAN CORPUSCULAR HEMOGLOBIN CONCENTRATION,[1],40.28 G/DL
same,MONOCYTE,[1],2.67%
same,NEUTROPHIL,[1],14.5%
same,PLATELET COUNT,[1],911.5 x10E3/uL
same,ALANINE AMINOTRANSFERASE,[2],36.83 u/L
same,ALKALINE PHOSPHATASE,[2],399.83 u/L
same,ASPARTATE AMINOTRANSFERASE,[2],66 u/L
same,BLOOD UREA NITROGEN,[2],14.67 mg/dL
same,CHOLESTEROL,[2],66.33 mg/dL
same,CREATINE PHOSPHOKINASE,[2],139.5 u/L
same,CREATININE,[2],0.92 mg/dL
same,GLUCOSE,[2],175 mg/dL
same,PHOSPHORUS,[2],11.42 mg/dL
same,TOTAL BILIRUBIN,[2],1.13 mg/dL
same,TOTAL PROTEIN,[2],6.87 G/DL
same,BASOPHIL,[3],0%
same,EOSINOPHIL,[3],0.2%
same,ERYTHROCYTE COUNT,[3],6.02 x10E6/uL
same,LEUKOCYTE COUNT,[3],12.34 x10E3/uL
same,LYMPHOCYTE,[3],83%
same,MEAN CORPUSCULAR HEMOGLOBIN,[3],23.92 pg
same,MEAN CORPUSCULAR VOLUME,[3],60.66 fL
same,MONOCYTE,[3],3%
same,NEUTROPHIL,[3],13.8%
same,PLATELET COUNT,[3],1190.6 x10E3/uL
same,ALANINE AMINOTRANSFERASE,[4],43 u/L
same,ALKALINE PHOSPHATASE,[4],393 u/L
same,ASPARTATE AMINOTRANSFERASE,[4],62.33 u/L
same,CHOLESTEROL,[4],65.5 mg/dL
same,CREATINE PHOSPHOKINASE,[4],130.67 u/L
same,CREATININE,[4],0.58 mg/dL
same,GLUCOSE,[4],180.67 mg/dL
same,PHOSPHORUS,[4],11.28 mg/dL
same,POTASSIUM,[4],7.05 MEQ/L
same,TOTAL BILIRUBIN,[4],0.72 mg/dL
same,TOTAL PROTEIN,[4],6.83 G/DL
same,BASOPHIL,[5],0%
same,EOSINOPHIL,[5],0%
same,ERYTHROCYTE COUNT,[5],5.85 x10E6/uL
same,LEUKOCYTE COUNT,[5],13.3 x10E3/uL
same,LYMPHOCYTE,[5],81.67%
same,MEAN CORPUSCULAR HEMOGLOBIN,[5],24.6 pg
same,MEAN CORPUSCULAR HEMOGLOBIN CONCENTRATION,[5],40.7 G/DL
same,MEAN CORPUSCULAR VOLUME,[5],60.33 fL
same,MONOCYTE,[5],2.67%
same,NEUTROPHIL,[5],15.67%
same,PLATELET COUNT,[5],839 x10E3/uL
same,ALANINE AMINOTRANSFERASE,[6],41.67 u/L
same,ALBUMIN,[6],3.7 G/DL
same,ALKALINE PHOSPHATASE,[6],316 u/L
same,ASPARTATE AMINOTRANSFERASE,[6],67 u/L
same,BLOOD UREA NITROGEN,[6],14.33 mg/dL
same,CREATININE,[6],0.77 mg/dL
same,GLUCOSE,[6],176.33 mg/dL
same,PHOSPHORUS,[6],11.3 mg/dL
same,POTASSIUM,[6],6.83 MEQ/L
same,SODIUM,[6],150 MEQ/L
same,TOTAL BILIRUBIN,[6],0.87 mg/dL
same,TOTAL PROTEIN,[6],6.77 G/DL
same,BASOPHIL,[7],0%
same,EOSINOPHIL,[7],0.33%
same,ERYTHROCYTE COUNT,[7],6.34 x10E6/uL
same,HEMATOCRIT,[7],37.4%
same,HEMOGLOBIN,[7],14.6 G/DL
same,LEUKOCYTE COUNT,[7],11.93 x10E3/uL
same,LYMPHOCYTE,[7],83%
same,MEAN CORPUSCULAR HEMOGLOBIN,[7],23 pg
same,MEAN CORPUSCULAR HEMOGLOBIN CONCENTRATION,[7],39.03 G/DL
same,MEAN CORPUSCULAR VOLUME,[7],58.97 fL
same,NEUTROPHIL,[7],14.33%
same,PLATELET COUNT,[7],1027.67 x10E3/uL
same,ALANINE AMINOTRANSFERASE,[8],42.67 u/L
same,ALKALINE PHOSPHATASE,[8],411.33 u/L
same,ASPARTATE AMINOTRANSFERASE,[8],68.33 u/L
same,BLOOD UREA NITROGEN,[8],15.67 mg/dL
same,CHOLESTEROL,[8],64.33 mg/dL
same,CREATINE PHOSPHOKINASE,[8],121.67 u/L
same,CREATININE,[8],0.63 mg/dL
same,PHOSPHORUS,[8],10.87 mg/dL
same,POTASSIUM,[8],6.6 MEQ/L
same,SODIUM,[8],149.67 MEQ/L
same,TOTAL BILIRUBIN,[8],0.73 mg/dL
same,TOTAL PROTEIN,[8],6.7 G/DL
